# Measurements: ChEMBL document CHEMBL5233249, “Recent advancements in the development of heterocyclic anti-inflammatory agents” (Eur J Med Chem, 2020)
# Assays:
# [1] = test system: RAW264.7; assay: Anti-inflammatory activity in mouse RAW264.7 cells assessed as inhibition of LPS-induced NO production in macrophages; format: functional, cell-based
# [2] = test system: Rattus norvegicus; assay: Anti-inflammatory activity against Carrageenan-induced paw edema in PO dosed Wistar albino rat assessed as inhibition of edema measured after 3 hr relative to control; format: functional; design: scale not given: the % may be the effect or the level left
# [3] = test system: Rattus norvegicus; assay: Anti-inflammatory activity against Carrageenan-induced paw edema in PO dosed Wistar albino rat assessed as inhibition of edema measured after 1 hr relative to control; format: functional; design: scale not given: the % may be the effect or the level left
# [4] = test system: Rattus norvegicus; assay: Anti-inflammatory activity against Carrageenan-induced paw edema in PO dosed Wistar albino rat assessed as inhibition of edema measured after 2 hr relative to control; format: functional; design: scale not given: the % may be the effect or the level left
# [5] = test system: Rattus norvegicus; assay: Anti-inflammatory activity against Carrageenan-induced paw edema in PO dosed Wistar albino rat assessed as inhibition of edema measured after 4 hr relative to control; format: functional; design: scale not given: the % may be the effect or the level left
# [6] = test system: Rattus norvegicus; assay: Anti-inflammatory activity against formalin-induced foot paw edema in PO dosed rat at 10 mg/kg assessed as inhibition of edema measured after 4 hr relative to control; format: functional
# [7] = test system: Erythrocyte; assay: Anti-inflammatory activity in human red blood cells assessed as stabilization of cell membrane; format: functional, cell-based
# [8] = Anti-inflammatory activity assessed as protein denaturation using bovine serum albumin relative to control; format: functional
# [9] = test system: Mus musculus; assay: Anti-inflammatory activity in Carrageenan-induced paw edema mouse model assessed as inhibition of granuloma measured after 24 hrs relative to control; format: functional
# [10] = test system: Rattus norvegicus; assay: Anti-inflammatory activity against formalin-induced foot paw edema in Wistar rat at 5 mg/kg, po assessed as inhibition of edema measured after 4 hr relative to control; format: functional
# [11] = Selectivity index, ratio of IC50 for ovine COX1 to IC50 for recombinant human COX2
# [12] = test system: Rattus norvegicus; assay: Anti-inflammatory activity in Carageenan-induced foot paw edema in Swiss albino rat assessed as reduction in volume of paw edema measured after 1 hr relative to control; format: functional; design: scale not given: the % may be the effect or the level left
# [13] = test system: Rattus norvegicus; assay: Anti-inflammatory activity in Carageenan-induced foot paw edema in Swiss albino rat assessed as reduction in volume of paw edema measured after 2 hr relative to control; format: functional; design: scale not given: the % may be the effect or the level left
# [14] = test system: Rattus norvegicus; assay: Anti-inflammatory activity in Carageenan-induced foot paw edema in Swiss albino rat assessed as reduction in volume of paw edema measured after 4 hr relative to control; format: functional; design: scale not given: the % may be the effect or the level left
# [15] = test system: Rattus norvegicus; assay: Anti-inflammatory activity in Carageenan-induced foot paw edema in Swiss albino rat assessed as reduction in volume of paw edema measured after 6 hr relative to control; format: functional; design: scale not given: the % may be the effect or the level left
# [16] = target: T1, Prostaglandin G/H synthase 1 (Ovis aries, UniProt P05979); assay: Inhibition of ovine COX-1 by EIA method
# T1 sequence (P05979 whole entry): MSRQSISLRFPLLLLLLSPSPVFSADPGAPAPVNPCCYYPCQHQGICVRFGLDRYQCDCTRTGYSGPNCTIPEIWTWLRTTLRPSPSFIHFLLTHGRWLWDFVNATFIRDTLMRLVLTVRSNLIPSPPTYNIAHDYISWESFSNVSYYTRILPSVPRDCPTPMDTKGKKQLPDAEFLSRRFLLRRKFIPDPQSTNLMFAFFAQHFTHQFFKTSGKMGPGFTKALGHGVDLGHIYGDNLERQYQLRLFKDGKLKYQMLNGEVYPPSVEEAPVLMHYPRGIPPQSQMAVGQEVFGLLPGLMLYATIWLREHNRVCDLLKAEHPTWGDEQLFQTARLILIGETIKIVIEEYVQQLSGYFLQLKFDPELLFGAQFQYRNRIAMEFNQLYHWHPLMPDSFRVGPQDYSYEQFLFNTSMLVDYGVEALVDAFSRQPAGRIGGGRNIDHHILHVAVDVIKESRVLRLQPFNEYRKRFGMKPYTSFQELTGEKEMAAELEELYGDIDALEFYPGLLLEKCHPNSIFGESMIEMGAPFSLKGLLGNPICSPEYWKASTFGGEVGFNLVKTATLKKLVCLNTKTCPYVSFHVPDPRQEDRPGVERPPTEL
# [17] = test system: Rattus norvegicus; assay: Anti-inflammatory activity in Wistar rat assessed as reduced hind paw edema at 25 mg/kg relative to control; format: functional; design: scale not given: the % may be the effect or the level left
# [18] = test system: Rattus norvegicus; assay: Anti-ulcerative activity in aspirin induced Wistar rat ulcer model assessed as inhibition of ulcer index at 20 mg/kg,po; format: functional
# [19] = test system: Rattus norvegicus; assay: Anti-ulcerative activity in Carrageenan-induced Sprague-Dawley rat ulcer model assessed as inhibition of ulcer index at 10 mg/kg,po; format: functional
# [20] = test system: Mus musculus; assay: Anti-inflammatory activity against Carrageenan-induced paw edema in mouse model assessed as inhibition of edema at 100 mg/kg measured after 3 hrs relative to control; format: functional; design: scale not given: the % may be the effect or the level left
# [21] = target: T2, Polyunsaturated fatty acid 5-lipoxygenase (Homo sapiens, UniProt P09917); assay: Inhibition of 5-LOX (unknown origin) after 5 mins by colorimetric method
# T2 sequence (P09917 whole entry): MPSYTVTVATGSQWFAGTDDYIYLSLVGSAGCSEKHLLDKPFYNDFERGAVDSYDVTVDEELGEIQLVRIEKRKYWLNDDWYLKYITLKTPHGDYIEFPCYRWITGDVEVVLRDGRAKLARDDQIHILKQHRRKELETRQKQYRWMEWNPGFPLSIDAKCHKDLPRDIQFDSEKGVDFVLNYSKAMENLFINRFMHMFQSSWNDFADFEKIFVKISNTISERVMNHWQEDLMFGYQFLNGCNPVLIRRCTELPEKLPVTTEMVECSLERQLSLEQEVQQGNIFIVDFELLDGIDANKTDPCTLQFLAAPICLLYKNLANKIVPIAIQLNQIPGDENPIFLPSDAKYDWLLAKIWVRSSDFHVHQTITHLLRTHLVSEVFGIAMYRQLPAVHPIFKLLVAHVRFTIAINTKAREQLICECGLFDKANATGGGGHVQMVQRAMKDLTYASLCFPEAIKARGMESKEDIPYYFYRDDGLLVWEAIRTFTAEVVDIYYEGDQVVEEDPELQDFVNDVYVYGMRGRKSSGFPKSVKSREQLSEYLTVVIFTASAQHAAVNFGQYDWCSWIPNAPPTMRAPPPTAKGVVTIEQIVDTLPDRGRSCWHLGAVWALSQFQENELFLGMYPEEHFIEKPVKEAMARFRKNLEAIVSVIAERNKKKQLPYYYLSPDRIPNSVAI
# [22] = target: T3, Prostaglandin G/H synthase 2 (Homo sapiens) (UniProt P35354); assay: Inhibition of COX-2 (unknown origin) assessed as inhibition at 100 mg/kg relative to control; format: organism-based
# T3 sequence (whole entry): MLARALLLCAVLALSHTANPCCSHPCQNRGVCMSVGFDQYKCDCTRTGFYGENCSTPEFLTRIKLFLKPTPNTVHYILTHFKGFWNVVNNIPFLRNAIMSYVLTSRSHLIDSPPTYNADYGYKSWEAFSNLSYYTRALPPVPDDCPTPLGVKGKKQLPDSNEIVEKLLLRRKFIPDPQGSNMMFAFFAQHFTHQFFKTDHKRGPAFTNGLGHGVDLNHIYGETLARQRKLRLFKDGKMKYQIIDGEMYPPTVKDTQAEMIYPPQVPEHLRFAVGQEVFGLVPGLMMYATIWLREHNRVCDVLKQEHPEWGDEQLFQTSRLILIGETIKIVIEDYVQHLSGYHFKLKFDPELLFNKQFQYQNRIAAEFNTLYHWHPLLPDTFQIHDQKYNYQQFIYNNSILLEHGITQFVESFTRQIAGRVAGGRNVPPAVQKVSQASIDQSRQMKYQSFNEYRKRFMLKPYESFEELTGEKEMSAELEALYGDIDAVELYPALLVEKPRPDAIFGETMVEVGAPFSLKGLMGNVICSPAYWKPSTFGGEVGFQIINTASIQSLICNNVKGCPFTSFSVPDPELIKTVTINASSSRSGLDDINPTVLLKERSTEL
# [23] = Antioxidant activity assessed as DPPH radical scavenging activity incubated for 20 mins by spectrophotometric analysis; format: functional
# [24] = test system: RAW264.7; assay: Anti-inflammatory activity in mouse RAW264.7 cells assessed as inhibition of LPS-induced NO production measured after 24 hrs; format: functional, cell-based; details: RAW264.7, 24 h
smiles,measurement,setting,value
C=CC1=CN=CC2C(=O)N3CCc4c([nH]c5ccccc45)C3=CC12 (centres undefined),IC50,[1],1280 nM
N#CC(/N=N/c1ccc2c(c1)CCC2)=C(\N)N1CCCCC1,Activity,[2],63.95%
CC(=O)Nc1ccc(OC(=O)CCCC(=O)/C=C/c2cn(-c3ccccc3)nc2-c2ccccc2)cc1,Activity,[3],20%
same,Activity,[4],15.56%
same,Activity,[5],28.57%
C[C@]12CCC(=O)C=C1CC[C@@H]1[C@@H]2[C@@H](O)C[C@@]2(C)[C@H]1CC[C@]2(O)C(=O)CO [HYDROCORTISONE],IC50,[1],3260 nM
Nc1cc(-c2ccccc2)nn1-c1nc2c(cnn2-c2ccccc2)c(=O)n1-c1ccccc1,inhibition in vivo at 10 mg/kg,[6],50%
Oc1ccc(Cl)cc1-c1cc(-c2cc3cc4ccccc4nc3s2)[nH]n1,EC50,[7],14 µg/mL
O=C(O)Cc1ccccc1Nc1c(Cl)cccc1Cl,Activity,[8],84.1%
O=C1CSC(=S)C1NC1=NC2C(C=NN2c2ccccc2)C(=O)N1c1ccccc1 (centres undefined),inhibition (INH),[9],45.6%
same,inhibition in vivo at 5 mg/kg,[10],85.7%
Cc1cc(-c2ccccc2)n(-c2nc3c(cnn3-c3ccccc3)c(=O)n2-c2ccccc2)n1,Selectivity Index,[11],5.44
CCCC1Nc2cc(C(=O)N/N=C/c3ccc(Cl)cc3Cl)cc(C)c2N1 (centres undefined),Activity,[12],45.5%
same,Activity,[13],59.38%
same,Activity,[14],81.4%
same,Activity,[15],90.3%
O=C1NC(=O)C(=NNc2cccc(-c3nc4ccccc4[nH]3)c2)C(=O)N1,IC50,[16],2760 nM
NS(=O)(=O)c1ccc(-n2nc(C(=O)NNC(=O)c3cccc(C(F)(F)F)c3)cc2-c2ccccc2)cc1,Selectivity Index,[11],10
same,Activity,[17],62.48%
C=CC(CO)[C@@H]1C[C@H]2c3[nH]c4ccccc4c3CCN2C(=O)[C@H]1CO (some centres undefined),IC50,[1],1180 nM
CC(C)Cc1ccc(C(C)C(=O)O)cc1 (centres undefined) [IBUPROFEN],UI,[18],20.25
same,UI,[19],20.25
same,Activity,[20],70.65%
O=C(O)c1ccc(CSc2nc3cc(F)c(Oc4ccc(F)cc4)cc3[nH]2)cc1,IC50,[21],900 nM
same,Activity,[20],66.13%
O=C(O)C(F)(F)C(O)c1cn(-c2ccccc2)nc1-c1ccc(Cl)cc1Cl (centres undefined),inhibition,[22],38.6%
same,Activity,[23],76%
NS(=O)(=O)c1ccc(-n2nc(C(=O)NNC(=O)c3cccc(Cl)c3)cc2-c2ccccc2)cc1,Activity,[17],>60%
CC(=O)Oc1ccccc1C(=O)O,inhibition,[22],11.1%
CC(C)(CO)NC(=O)CCCC(=O)/C=C/c1cn(-c2ccccc2)nc1-c1ccccc1,Activity,[3],40%
same,Activity,[4],25.56%
same,Activity,[5],30.95%
N=C1/C(=N\Nc2ccc(Cl)cc2)C(N)=NN1c1ccc(S(N)(=O)=O)cc1,IC50,[21],2310 nM
CCCC1Nc2cc(C(=O)N/N=C/c3ccc(Cl)c(Cl)c3O)cc(C)c2N1 (centres undefined),Activity,[12],43.3%
same,Activity,[13],57.62%
same,Activity,[14],79.51%
same,Activity,[15],83.5%
N#CC(C#N)/N=N/c1ccc2c(c1)CCC2,Activity,[2],64.83%
C[C@]12CC[C@H]3[C@@H](CC=C4C[C@@H](O)CC[C@@]43C)[C@@H]1CC[C@@H]2C1=NN(C(N)=S)C(c2cccc(F)c2)C1 (some centres undefined),IC50,[24],860 nM
Cc1ccc(-c2nn(-c3ccccc3)cc2C(O)C(F)(F)C(=O)NN)cc1 (centres undefined),inhibition,[22],33.7%
same,Activity,[23],70.9%
O=C1O[C@H]([C@@H](O)CO)C(O)=C1O,Activity,[23],81.3%
C[C@@H]1C[C@H]2[C@@H]3CCC4=CC(=O)C=C[C@]4(C)[C@@]3(F)[C@@H](O)C[C@]2(C)[C@@]1(O)C(=O)CO [DEXAMETHASONE],IC50,[24],620 nM
Oc1ccccc1-c1cc(-c2cc3cc4ccccc4nc3s2)[nH]n1,EC50,[7],11 µg/mL
